Laboratory results as given in patent US9943599B2, “Therapeutic applications of calcium electroporation to effectively induce tumor necrosis” (Herlev Hospital, priority 2011, dated 2018).

Legend:
[1] = tested on: muscle below MDA-MB231 tumor; test: Normal tissue reaction, muscle below the tumor; assay type: in vivo, NMRI-Foxn1nu mice; details: for fraction of necrosis in muscle tissue: with electroporation, 7 days
Description: MDA-MB231, a human breast cancer cell line was used for the in vivo experiments. The cells were tested by rapid MAP27 panel (Taconic, Hudson N.Y.) before use without signs of infection. Cells were maintained in vitro as described in Example 1. 2.5×10^6 cells/100 μl PBS were injected subcutaneously in the flank of NMRI-Foxn1nu mice (Harlan, Indianapolis, Ind.). Tumor pieces were transplanted twice from donor mice to the flank of nude mice that were 13-19 weeks old. HYPNORM™-DORMICUM™ (fentanyl/fluanisone/midazolam; VetaPharma, Leeds, U K and Roche, Basel, Switzerland) was used for anesthesia complemented with RIMADYL® (Carprofen) (Pfizer ApS, Ballerup, Denmark) as well as lidocaine (Region Hovedstadens Apotek, Herlev, Denmark) in the incision. Mice were randomised at a tumor volume above 85 mm^3 and tumors were treated with 1) injection of calcium-chloride solution and electroporation (8 pulses of 1.0 kV/cm for 100 μs and a frequency of 1 Hz) using a 6 mm plate electrode and a square wave electroporator (CLINIPORATOR®, IGEA, Modena, Italy), 2) calcium-free physiological saline injection and electroporation (same parameters as above), 3) injection of calcium-chloride, 4) calcium-free physiological saline injection, or 5) untreated but with needle inserted in the tumor without injection and with electrodes put on the tumor without pulses applied. […] Tumor volume was calculated as ab2n/6, where “a” is the largest diameter and “b” is the largest diameter perpendicular to “a”. […] Estimation of normal tissue damages was evaluated semiquantitatively on HE-sections by light[ ]microscopy (LEICA® DM 2000 light microscope, Leica Microsystems, Wetzlar, Germany).
The presence of necrosis in the muscle samples were scored by counting numbers of necrotic myocytes per 10 HPF (400× magnification). Necrosis was only recorded if the myocytes had lost the nucleus. Increased eosinofilic intensity in the myocyte cytoplasm with a retained nucleus was not recorded as a necrotic fiber. […]

[2] = tested on: CT26 (murine colon carcinoma) tumors; test: Calcium with sonoporation, CT26 tumor volume; assay type: in vivo, Balb/c mice
Description: CT26, a murine colon carcinoma cell line was used for the in vivo experiments. The cells were tested by mycoplasma detection kit (Sigma, St. Louis, Mo.) before use without signs of infection. Cells were maintained in vitro in DMEM culture medium (Sigma, St. Louis, Mo.) with 10% fetal calf serum (Sigma, St. Louis, Mo.), L-glutamine, penicillin and streptomycin at 37° C. and 5% CO2. All antibiotics were removed from culture media 24 hours before tumour inoculation. 1.0×10^6 cells/200 μl serum free DMEM were injected subcutaneously in the right flank of 6-8 week old female Balb/c mice, in condition weighing 16-22 g. Mice were randomised at an average tumor size of approximately 5.0 mm in largest diameter and tumors were treated with 1) injection of isotonic calcium-chloride solution (168 mM CaCl2) and sonoporation (3.5 W/cm^2 at 1 MHz and 100% duty cycle for 2 minutes) using a SONITRON® 2000 ultrasound apparatus (Rich-Mar, Inola, Okla.), 2) sonoporation alone (same parameters as above), 3) isotonic calcium-chloride solution injection, or 4) no treatment. Tumor volume was calculated as ab^2n/6, where a is the largest diameter and b is the largest diameter perpendicular to a. […]
The difference in tumor volume between the different treatment groups at different time after treatment was assessed using student's t-test.

DC-3F cells = test: Calcium electroporation with two calcium sources, MTT assay; assay type: cell-based, Chinese hamster; details: 1 mM, 8 pulses, 0-1.6 kV/cm; MTT 1 day after treatment
Description: DC-3F cells were electroporated as described in example 1 with 1 mM calcium chloride (prepared by SAD, Denmark) or 1 mM calcium glubionate (Sandoz, Holzkirchen, Germany). The calcium concentration was chosen based on the experiment described in example 1 where 1 mM calcium is the lowest concentration inducing high cell death. The cells were electroporated with 8 pulses of […] at 1 Hz and increasing electric field (0-1.6 kV/cm). After 20 min at 37° C. and 5% CO2 cells were diluted in RPMI 1640 culture medium with 10% fetal calf serum and penicillin-streptomycin and seeded in 96-well plates at a concentration of 3.1×10^4 cells/100 μl.

[Ca+2].[Cl-].[Cl-] [calcium chloride]
fraction of muscle tissue affected ([1]; after calcium electroporation of the tumor above the muscle): only a minor fraction | fraction of necrosis in muscle tissue ([1]; at increasing calcium concentrations): increase in the fraction of necrosis | fraction of necrosis in muscle tissue ([1]; at increasing injection volumes): slight increase in the fraction of necrosis | treated tumors eliminated ([2]; 168 mM CaCl2, half tumor volume, sonoporation 3.5 W/cm^2, 1 MHz, 2 minutes, 7/8): 88% | tumor volume ([2]; isotonic calcium-chloride injection alone (control)): continues to increase | effect of calcium electroporation on cell viability, calcium chloride versus calcium glubionate (DC-3F cells): no difference
